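Interpolation was linear, between the two tested concentrations surrounding the appropriate level; five concentrations were tested over 48 hours in 96-well plates. At the GI50, growth is halved. The concentration for full growth arrest is given as TGI.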
Experiments:
Test in all cases: DTP human tumour cell line panel, 48 h
SK-MEL-5 melanoma = system: SK-MEL-5 melanoma
HOP-92 NSCLC = system: HOP-92 NSCLC
RPMI-8226 leukemia = system: RPMI-8226 leukemia
SF-268 CNS = system: SF-268 CNS
HCT-15 colon = system: HCT-15 colon
HT29 colon = system: HT29 colon
SF-539 CNS = system: SF-539 CNS
MOLT-4 leukemia = system: MOLT-4 leukemia
IGROV1 ovarian = system: IGROV1 ovarian
SK-OV-3 ovarian = system: SK-OV-3 ovarian
A498 renal = system: A498 renal
U251 CNS = system: U251 CNS
MDA-MB-231 breast = system: MDA-MB-231 breast
ACHN renal = system: ACHN renal
MDA-MB-435 = system: MDA-MB-435
M14 melanoma = system: M14 melanoma
UACC-62 melanoma = system: UACC-62 melanoma
NCI-H226 lung = system: NCI-H226 lung
CAKI-1 renal = system: CAKI-1 renal
NCI-H460 lung = system: NCI-H460 lung
PC-3 prostate = system: PC-3 prostate
OVCAR-8 ovarian = system: OVCAR-8 ovarian
SNB-75 CNS = system: SNB-75 CNS
OVCAR-3 ovarian = system: OVCAR-3 ovarian
KM12 colon = system: KM12 colon
SR leukemia = system: SR leukemia
TK-10 renal = system: TK-10 renal
SN12C renal = system: SN12C renal
RXF 393 renal = system: RXF 393 renal
UACC-257 melanoma = system: UACC-257 melanoma
DU-145 prostate = system: DU-145 prostate
786-0 renal = system: 786-0 renal
MCF7 breast = system: MCF7 breast
OVCAR-4 ovarian = system: OVCAR-4 ovarian
HOP-62 NSCLC = system: HOP-62 NSCLC
UO-31 renal = system: UO-31 renal
SW-620 colon = system: SW-620 colon
HCC-2998 colon = system: HCC-2998 colon
OVCAR-5 ovarian = system: OVCAR-5 ovarian
BT-549 breast = system: BT-549 breast
T-47D breast = system: T-47D breast
K-562 leukemia = system: K-562 leukemia
HL-60(TB) leukemia = system: HL-60(TB) leukemia
MALME-3M melanoma = system: MALME-3M melanoma
SK-MEL-2 melanoma = system: SK-MEL-2 melanoma
SK-MEL-28 melanoma = system: SK-MEL-28 melanoma
A549 NSCLC = system: A549 NSCLC
CCRF-CEM leukemia = system: CCRF-CEM leukemia
EKVX NSCLC = system: EKVX NSCLC
SNB-19 CNS = system: SNB-19 CNS
HS 578T breast = system: HS 578T breast
SF-295 CNS = system: SF-295 CNS

CC1(C)[C@@H](O)CC[C@]2(C)[C@H]3CC[C@@H]4[C@H]5[C@H](C(=O)/C=C\c6ccccn6)CC[C@]5(O)CC[C@@]4(C)[C@]3(C)CC[C@@H]12
GI50 (SK-MEL-5 melanoma): 1.63 µM
TGI (SK-MEL-5 melanoma): 3.05 µM
GI50 (HOP-92 NSCLC): 1.34 µM
TGI (HOP-92 NSCLC): 3.74 µM
GI50 (RPMI-8226 leukemia): 1.76 µM
TGI (RPMI-8226 leukemia): 5.35 µM
GI50 (SF-268 CNS): 2.38 µM
TGI (SF-268 CNS): 8.44 µM
GI50 (HCT-15 colon): 1.9 µM
TGI (HCT-15 colon): 5.52 µM
GI50 (HT29 colon): 3.33 µM
TGI (HT29 colon): > 100 µM
GI50 (SF-539 CNS): 2.34 µM
TGI (SF-539 CNS): 6.34 µM
GI50 (MOLT-4 leukemia): 2.39 µM
TGI (MOLT-4 leukemia): > 100 µM
GI50 (IGROV1 ovarian): 1.9 µM
TGI (IGROV1 ovarian): 4.07 µM
GI50 (SK-OV-3 ovarian): 5.35 µM
TGI (SK-OV-3 ovarian): 30.7 µM
GI50 (A498 renal): 1.66 µM
TGI (A498 renal): 4.33 µM
GI50 (U251 CNS): 1.61 µM
TGI (U251 CNS): 3.1 µM
GI50 (MDA-MB-231 breast): 3.04 µM
TGI (MDA-MB-231 breast): > 100 µM
GI50 (ACHN renal): 2.33 µM
TGI (ACHN renal): 6.28 µM
GI50 (MDA-MB-435): 1.76 µM
TGI (MDA-MB-435): 3.75 µM
GI50 (M14 melanoma): 2.26 µM
TGI (M14 melanoma): 5.87 µM
GI50 (UACC-62 melanoma): 1.74 µM
TGI (UACC-62 melanoma): 3.95 µM
GI50 (NCI-H226 lung): 3.05 µM
TGI (NCI-H226 lung): 34.5 µM
GI50 (CAKI-1 renal): 2.02 µM
TGI (CAKI-1 renal): 8.4 µM
GI50 (NCI-H460 lung): 1.9 µM
TGI (NCI-H460 lung): 4.83 µM
GI50 (PC-3 prostate): 2.1 µM
TGI (PC-3 prostate): 6.24 µM
GI50 (OVCAR-8 ovarian): 3.37 µM
TGI (OVCAR-8 ovarian): > 100 µM
GI50 (SNB-75 CNS): 7.59 µM
TGI (SNB-75 CNS): > 100 µM
GI50 (OVCAR-3 ovarian): 1.87 µM
TGI (OVCAR-3 ovarian): 4.89 µM
GI50 (KM12 colon): 1.85 µM
TGI (KM12 colon): 3.96 µM
GI50 (SR leukemia): 1.71 µM
TGI (SR leukemia): 14.5 µM
GI50 (TK-10 renal): 3.23 µM
TGI (TK-10 renal): 9.31 µM
GI50 (SN12C renal): 3.08 µM
TGI (SN12C renal): > 100 µM
GI50 (RXF 393 renal): 1.74 µM
TGI (RXF 393 renal): 3.15 µM
GI50 (UACC-257 melanoma): 3.25 µM
TGI (UACC-257 melanoma): 39.2 µM
GI50 (DU-145 prostate): 1.75 µM
TGI (DU-145 prostate): 3.52 µM
GI50 (786-0 renal): 2.23 µM
TGI (786-0 renal): 4.73 µM
GI50 (MCF7 breast): 0.768 µM
TGI (MCF7 breast): 4.54 µM
GI50 (OVCAR-4 ovarian): 3.92 µM
TGI (OVCAR-4 ovarian): 46.4 µM
GI50 (HOP-62 NSCLC): 1.8 µM
TGI (HOP-62 NSCLC): 4.99 µM
GI50 (UO-31 renal): 1.6 µM
TGI (UO-31 renal): 3.23 µM
GI50 (SW-620 colon): 1.93 µM
TGI (SW-620 colon): 4.85 µM
GI50 (HCC-2998 colon): 1.94 µM
TGI (HCC-2998 colon): 3.52 µM
GI50 (OVCAR-5 ovarian): 2.89 µM
TGI (OVCAR-5 ovarian): 7.92 µM
GI50 (BT-549 breast): 1.96 µM
TGI (BT-549 breast): 3.57 µM
GI50 (T-47D breast): 1.52 µM
TGI (T-47D breast): 8.62 µM
GI50 (K-562 leukemia): 2.25 µM
TGI (K-562 leukemia): > 100 µM
GI50 (HL-60(TB) leukemia): 1.81 µM
TGI (HL-60(TB) leukemia): 5.74 µM
GI50 (MALME-3M melanoma): 2.16 µM
TGI (MALME-3M melanoma): 4.78 µM
GI50 (SK-MEL-2 melanoma): 2.61 µM
TGI (SK-MEL-2 melanoma): 7.18 µM
GI50 (SK-MEL-28 melanoma): 2.04 µM
TGI (SK-MEL-28 melanoma): 4.13 µM
GI50 (A549 NSCLC): 2.77 µM
TGI (A549 NSCLC): 9.37 µM
GI50 (CCRF-CEM leukemia): 2.06 µM
TGI (CCRF-CEM leukemia): 8.51 µM
GI50 (EKVX NSCLC): 2.62 µM
TGI (EKVX NSCLC): 13.3 µM
GI50 (SNB-19 CNS): 2.77 µM
TGI (SNB-19 CNS): 10.8 µM
GI50 (HS 578T breast): 6.84 µM
TGI (HS 578T breast): > 100 µM
GI50 (SF-295 CNS): 2.61 µM
TGI (SF-295 CNS): 8.55 µM
